Assay: in vitro
Details: human, hek293t cells

Row | SMILES | viability at 48 h, 25 µM [%]
1 | CC(O)=C(C#N)C(=O)Nc1ccc(C(F)(F)F)cc1 [9-A05, 2-cyano-3-hydroxy-N-[4-(trifluoromethyl)phenyl]but-2-enamide] | 90.6
2 | CCOc1ccccc1NC(=O)C(C#N)=Cc1c(C)[nH]c2ccccc12 [9-A06, 2-cyano-N-(2-ethoxyphenyl)-3-(2-methyl-1H-indol-3-yl)prop-2-enamide] | 100
3 | Cc1cc(C=C(C#N)C(=O)Nc2ccccc2)c(C)n1CC(C)C [9-A07, 2-cyano-3-[2,5-dimethyl-1-(2-methylpropyl)-1H-pyrrol-3-yl]-N-phenylprop-2-enamide] | 115
4 | N#CC(=Cc1ccc(-c2ccccc2F)o1)C(=O)Nc1nccs1 [9-A08, 2-cyano-3-[5-(2-fluorophenyl)furan-2-yl]-N-(1,3-thiazol-2-yl)prop-2-enamide] | 110
5 | CC(C)NC(=O)C(C#N)=Cc1ccccc1Cl [9-A09, 3-(2-chlorophenyl)-2-cyano-N-(propan-2-yl)prop-2-enamide] | 95.9
6 | COc1ccccc1NC(=O)C(C#N)=Cc1cc(C)c(C)cc1C [9-A10, 2-cyano-N-(2-methoxyphenyl)-3-(2,4,5-trimethylphenyl)prop-2-enamide] | 115
7 | CC(C)NC(=O)C(C#N)=Cc1c(Cl)nc2ccccn12 [9-A11, 3-{2-chloroimidazo[1,2-a]pyridin-3-yl}-2-cyano-N-(propan-2-yl)prop-2-enamide] | 112
8 | CC(=O)N(c1ccccc1)c1nc(C=C(C#N)C(=O)NC2CC2)cs1 [9-A12, 2-cyano-N-cyclopropyl-3-[2-(N-phenylacetamido)-1,3-thiazol-4-yl]prop-2-enamide] | 123
9 | CC(C)NC(=O)C(C#N)=Cc1cccc(Cl)c1 [9-A13, 3-(3-chlorophenyl)-2-cyano-N-(propan-2-yl)prop-2-enamide] | 99.7
10 | CN(C)c1ccc(C=C(C#N)C(=O)N2CCC2)cc1 [9-A14, 2-(azetidine-1-carbonyl)-3-[4-(dimethylamino)phenyl]prop-2-enenitrile] | 106
11 | N#CC(=Cc1ccc2c(c1)OCO2)C(=O)NCc1ccco1 [9-A15, 3-(1,3-dioxaindan-5-yl)-2-cyano-N-[(furan-2-yl)methyl]prop-2-enamide] | 119
12 | N#CC(=Cc1cnn(CCCl)c1)C(=O)NC1CCCCC1 [9-A16, 3-[1-(2-chloroethyl)-1H-pyrazol-4-yl]-2-cyano-N-cyclohexylprop-2-enamide] | 109
13 | COc1cccc2cc(C=C(C#N)C(=O)Nc3ccc(C)cc3)oc12 [9-A17, 2-cyano-3-(7-methoxy-1-benzofuran-2-yl)-N-(4-methylphenyl)prop-2-enamide] | 89
14 | COc1ccc(C=C(C#N)C(=O)Nc2ccccc2C(=O)O)cc1O [9-A18, 2-[2-cyano-3-(3-hydroxy-4-methoxyphenyl)prop-2-enamido]benzoic acid] | 104
15 | COc1ccc(C=C(C#N)C(=O)Nc2ccc(C)cc2)cc1 [9-A19, 2-cyano-3-(4-methoxyphenyl)-N-(4-methylphenyl)prop-2-enamide] | 103
16 | N#CC(=Cc1cccc(O)c1)C(=O)Nc1ccccc1C(F)(F)F [9-A20, 2-cyano-3-(3-hydroxyphenyl)-N-[2-(trifluoromethyl)phenyl]prop-2-enamide] | 109
17 | N#CC(C(=O)N1CCCCC1)=C1N=C(N)c2ccccc21 [9-A21, 2-(3-amino-1H-isoindol-1-ylidene)-3-oxo-3-(piperidin-1-yl)propanenitrile] | 102
18 | N#CC(=Cc1ccc(C#N)cc1)C(=O)Nc1ccc(F)c(Cl)c1 [9-A22, N-(3-chloro-4-fluorophenyl)-2-cyano-3-(4-cyanophenyl)prop-2-enamide] | 102
19 | N#CC(=Cc1ccc(N2CCOCC2)cc1)C(=O)Nc1ccccc1F [9-B03, 2-cyano-N-(2-fluorophenyl)-3-[4-(morpholin-4-yl)phenyl]prop-2-enamide] | 89.3
20 | CCN(CC)C(=O)/C(C#N)=C/c1cc(O)c(O)c([N+](=O)[O-])c1 [9-B04, (2E)-2-cyano-3-(3,4-dihydroxy-5-nitrophenyl)-N,N-diethylprop-2-enamide] | 105
21 | Cc1c(Cl)cccc1NC(=O)C(C#N)=Cc1cccs1 [9-B05, N-(3-chloro-2-methylphenyl)-2-cyano-3-(thiophen-2-yl)prop-2-enamide] | 108
22 | N#CC(=Cc1cccc(-c2ccncc2)c1)C(=O)NCc1ccco1 [9-B06, 2-cyano-N-[(furan-2-yl)methyl]-3-[3-(pyridin-4-yl)phenyl]prop-2-enamide] | 68.2
23 | N#CC(=Cc1c[nH]c2ccccc12)C(=O)Nc1ccc2c(c1)OCCO2 [9-B07, 2-cyano-N-(2,3-dihydro-1,4-benzodioxin-6-yl)-3-(1H-indol-3-yl)prop-2-enamide] | 101
24 | N#CC(=Cc1ccc(-c2ccccc2)cc1)C(=O)N1CCCC1 [9-B08, 3-{[1,1'-biphenyl]-4-yl}-2-(pyrrolidine-1-carbonyl)prop-2-enenitrile] | 71.2
25 | C=CCNC(=O)C(C#N)=Cc1cccc(O)c1 [9-B09, 2-cyano-3-(3-hydroxyphenyl)-N-(prop-2-en-1-yl)prop-2-enamide] | 113

Row | SMILES | viability at 48 h, 25 µM [%]
26 | N#CC(=Cc1c[nH]c2ccccc12)C(=O)Nc1ccccn1 [9-B10, 2-cyano-3-(1H-indol-3-yl)-N-(pyridin-2-yl)prop-2-enamide] | 111
27 | N#CC(=Cc1ccco1)C(=O)NCCc1ccc(F)cc1F [9-B11, 2-cyano-N-[2-(2,4-difluorophenyl)ethyl]-3-(furan-2-yl)prop-2-enamide] | 122
28 | N#CC(=Cc1csc(COc2ccccc2)n1)C(N)=O [9-B12, 2-cyano-3-[2-(phenoxymethyl)-1,3-thiazol-4-yl]prop-2-enamide] | 116
29 | CCCCNC(=O)C(C#N)=Cc1ccsc1 [9-B13, N-butyl-2-cyano-3-(thiophen-3-yl)prop-2-enamide] | 102
30 | CNC(=O)C(C#N)=Cc1ccc(F)cc1 [9-B14, 2-cyano-3-(4-fluorophenyl)-N-methylprop-2-enamide] | 109
31 | CC(C)c1nc(C=C(C#N)C(=O)NC2CCCCC2)c2ccccn12 [9-B15, 2-cyano-N-cyclohexyl-3-[3-(propan-2-yl)imidazo[1,5-a]pyridin-1-yl]prop-2-enamide] | 103
32 | CC(C)NC(=O)C(C#N)=Cc1ccc(-c2ccc([N+](=O)[O-])cc2)s1 [9-B16, 2-cyano-3-[5-(4-nitrophenyl)thiophen-2-yl]-N-(propan-2-yl)prop-2-enamide] | 99.6
33 | Cc1cc(C=C(C#N)C(=O)Nc2cnn(C)c2)c(C)n1C1CCCCC1 [9-B17, 2-cyano-3-(1-cyclohexyl-2,5-dimethyl-1H-pyrrol-3-yl)-N-(1-methyl-1H-pyrazol-4-yl)prop-2-enamide] | 96.1
34 | Cc1nc2cc(NC(=O)C(C#N)=Cc3ccco3)ccc2n1C [9-B18, 2-cyano-N-(1,2-dimethyl-1H-1,3-benzodiazol-5-yl)-3-(furan-2-yl)prop-2-enamide] | 106
35 | Cc1ccc(NC(=O)C(C#N)=CC2=Cc3ccccc3OC2)cc1 [9-B19, 3-(2H-chromen-3-yl)-2-cyano-N-(4-methylphenyl)prop-2-enamide] | 119
36 | N#CC(=Cc1ccco1)C(=O)NCc1nc(-c2ccncc2)cs1 [9-B20, 2-cyano-3-(furan-2-yl)-N-{[4-(pyridin-4-yl)-1,3-thiazol-2-yl]methyl}prop-2-enamide] | 109
37 | CN(C)c1ccc(C=C(C#N)C(=O)Nc2ccc3c(c2)OCCO3)cc1 [9-B21, 2-cyano-N-(2,3-dihydro-1,4-benzodioxin-6-yl)-3-[4-(dimethylamino)phenyl]prop-2-enamide] | 110
38 | COc1ccc(C=C(C#N)C(=O)Nc2cc(C)ccc2C)cc1Cl [9-B22, 3-(3-chloro-4-methoxyphenyl)-2-cyano-N-(2,5-dimethylphenyl)prop-2-enamide] | 92.9
39 | CCCCNC(=O)C(C#N)=Cc1cc(C)cc(C)c1 [9-C03, N-butyl-2-cyano-3-(3,5-dimethylphenyl)prop-2-enamide] | 122
40 | COc1cc(C)c(C=C(C#N)C(=O)Nc2ccc(C)cc2)cc1C(C)C [9-C04, 2-cyano-3-[4-methoxy-2-methyl-5-(propan-2-yl)phenyl]-N-(4-methylphenyl)prop-2-enamide] | 127
41 | CCCNC(=O)C(C#N)=Cc1ccc(-n2cncn2)c(C)c1 [9-C05, 2-cyano-3-[3-methyl-4-(1H-1,2,4-triazol-1-yl)phenyl]-N-propylprop-2-enamide] | 96
42 | CCOc1ccc(C=C(C#N)C(=O)Nc2nccs2)cc1 [9-C06, 2-cyano-3-(4-ethoxyphenyl)-N-(1,3-thiazol-2-yl)prop-2-enamide] | 94.3
43 | CC(C)NC(=O)C(C#N)=Cc1cccc(Cl)c1Cl [9-C07, 2-cyano-3-(2,3-dichlorophenyl)-N-(propan-2-yl)prop-2-enamide] | 39.7
44 | COc1ccc(NC(=O)C(C#N)=Cc2cccc(O)c2)cc1Cl [9-C08, N-(3-chloro-4-methoxyphenyl)-2-cyano-3-(3-hydroxyphenyl)prop-2-enamide] | 102
45 | CC(C)NC(=O)C(C#N)=Cc1ccc(Cl)cc1 [9-C09, 3-(4-chlorophenyl)-2-cyano-N-(propan-2-yl)prop-2-enamide] | 86.7
46 | C#CCOc1ccccc1C=C(C#N)C(=O)Nc1ccccc1F [9-C10, 2-cyano-N-(2-fluorophenyl)-3-[2-(prop-2-yn-1-yloxy)phenyl]prop-2-enamide] | 80.4
47 | CCCCNC(=O)C(C#N)=Cc1cc(C)ccc1C [9-C11, N-butyl-2-cyano-3-(2,5-dimethylphenyl)prop-2-enamide] | 93.1
48 | C=CCNC(=O)C(C#N)=Cc1ccc(-c2ccc(F)cc2)s1 [9-C12, 2-cyano-3-[5-(4-fluorophenyl)thiophen-2-yl]-N-(prop-2-en-1-yl)prop-2-enamide] | 111
49 | CC(C)NC(=O)C(C#N)=Cc1ccc2ccccc2c1 [9-C13, 2-cyano-3-(naphthalen-2-yl)-N-(propan-2-yl)prop-2-enamide] | 77.9

Reference: publication PMC11995724, “Antibiotic target discovery by integrated phenotypic and activity-based profiling of electrophilic fragments” (Cell chemical biology, 2025)
